Measurements from US20230295106A1 (priority 2019, published 2023).
pEC50, pIC50: −log10 of the molar value.

Key:
[1] = molecular target: T1, 5-HT2C edited (accession number AAF35842.1) (Homo sapiens, UniProt P28335, I156V/I160V/N158S); assay: cell-based; details: 5-HT2C IPOne Agonism Activity
Target sequence in this assay (P28335 whole entry I156V/N158S/I160V, looked up): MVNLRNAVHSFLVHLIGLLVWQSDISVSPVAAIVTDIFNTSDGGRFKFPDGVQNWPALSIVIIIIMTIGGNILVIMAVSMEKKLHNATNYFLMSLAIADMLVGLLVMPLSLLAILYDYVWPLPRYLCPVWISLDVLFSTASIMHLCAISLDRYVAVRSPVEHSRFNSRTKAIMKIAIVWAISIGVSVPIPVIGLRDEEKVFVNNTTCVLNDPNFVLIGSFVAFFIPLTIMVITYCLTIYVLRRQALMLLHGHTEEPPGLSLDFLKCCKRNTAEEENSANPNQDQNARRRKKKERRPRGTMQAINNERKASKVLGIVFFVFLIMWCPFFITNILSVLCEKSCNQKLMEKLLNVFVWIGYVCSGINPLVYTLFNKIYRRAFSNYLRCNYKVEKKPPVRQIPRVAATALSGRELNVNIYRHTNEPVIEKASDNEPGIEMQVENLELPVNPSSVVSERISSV

[2] = molecular target: T1, 5-HT2C edited (accession number AAF35842.1); assay: biochemical; details: 5-HT2C Radioligand Binding Activity
Target sequence in this assay (P28335 33-458 I156V/N158S/I160V limits assumed): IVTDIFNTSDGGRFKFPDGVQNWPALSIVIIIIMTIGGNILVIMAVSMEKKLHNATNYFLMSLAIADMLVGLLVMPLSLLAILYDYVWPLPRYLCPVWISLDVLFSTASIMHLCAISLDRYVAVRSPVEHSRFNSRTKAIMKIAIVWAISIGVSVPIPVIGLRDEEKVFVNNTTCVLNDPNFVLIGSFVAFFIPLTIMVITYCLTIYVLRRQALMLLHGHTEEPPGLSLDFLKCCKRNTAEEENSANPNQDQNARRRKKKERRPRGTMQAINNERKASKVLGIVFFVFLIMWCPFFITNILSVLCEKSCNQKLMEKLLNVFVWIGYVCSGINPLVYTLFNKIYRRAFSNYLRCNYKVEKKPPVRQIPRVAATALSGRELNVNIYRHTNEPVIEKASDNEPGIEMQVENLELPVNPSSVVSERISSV

[3] = molecular target: human recombinant 5-HT2C edited receptor (accession number AAF35842.1) (Homo sapiens, UniProt P28335, I156V/N158S/I160V); assay: cell-based; details: read-out: 5-HT2C IPOne Agonism Activity
Sequence of human recombinant 5-HT2C edited receptor (accession number AAF35842.1) (P28335 whole entry I156V/N158S/I160V, looked up): as the sequence (P28335 whole entry I156V/N158S/I160V, looked up) above

## CCN(CC)C(=O)[C@@H]1C=C(c2cc(OC)cc(OC)c2)CN(C)C1 (single isomer, unassigned) [Compound 5, 5-(3,5-dimethoxyphenyl)-N,N-diethyl-1-methyl-1,2,3,6-tetrahydropyridine-3-carboxamide]
[1]
  pEC50: 6.00 to 7.00
[2]
  pIC50: 6.00 to 7.00

## CCN(CC)C(=O)[C@@H]1C=C(c2cc(OC)cc(OC)c2)CN(C)C1 (single isomer, unassigned) [Compound 6, 5-(3,5-dimethoxyphenyl)-N,N-diethyl-1-methyl-1,2,3,6-tetrahydropyridine-3-carboxamide]
[1]
  pEC50: 5.00 to 6.00
[2]
  pIC50: 5.00 to 6.00

## CCN(CC)C(=O)[C@@H]1C=C(c2ccccc2OC)CN(C)C1 (single isomer, unassigned) [Compound 7, N,N-diethyl-5-(2-methoxyphenyl)-1-methyl-1,2,3,6-tetrahydropyridine-3-carboxamide]
[1]
  pEC50: 6.00 to 7.00
[2]
  pIC50: 6.00 to 7.00

## CCN(CC)C(=O)[C@@H]1C=C(c2ccccc2OC)CN(C)C1 (single isomer, unassigned) [Compound 8, N,N-diethyl-5-(2-methoxyphenyl)-1-methyl-1,2,3,6-tetrahydropyridine-3-carboxamide]
[1]
  pEC50: 5.00 to 6.00
[2]
  pIC50: 5.00 to 6.00

## CCN(CC)C(=O)[C@@H]1C=C(c2cccc(OC)c2)CN(C)C1 (single isomer, unassigned) [Compound 9, N,N-diethyl-5-(3-methoxyphenyl)-1-methyl-1,2,3,6-tetrahydropyridine-3-carboxamide]
[1]
  pEC50: 7.00 to 8.00
[2]
  pIC50: 7.00 to 8.00

## CCN(CC)C(=O)[C@@H]1C=C(c2cccc(OC)c2)CN(C)C1 (single isomer, unassigned) [Compound 10, N,N-diethyl-5-(3-methoxyphenyl)-1-methyl-1,2,3,6-tetrahydropyridine-3-carboxamide]
[1]
  pEC50: 6.00 to 7.00
[2]
  pIC50: 6.00 to 7.00

## CN(C)C1Cc2cccc3ccn(c23)C1 (single isomer, unassigned) [Compound 14, N,N-dimethyl-5,6-dihydro-4H-pyrrolo[3,2,1-ij]quinolin-5-amine]
[1]
  pEC50: 6.00 to 7.00
[2]
  pIC50: 7.00 to 8.00

## CN(C)C1Cc2cccc3ccn(c23)C1 (single isomer, unassigned) [Compound 15, N,N-dimethyl-5,6-dihydro-4H-pyrrolo[3,2,1-ij]quinolin-5-amine]
[3]
  pEC50: 6.00 to 7.00
[2]
  pIC50: 6.00 to 7.00

## NC1Cc2cccc3ccn(c23)C1 (centres unmarked) [Compound 13, 5,6-dihydro-4H-pyrrolo[3,2,1-ij]quinolin-5-amine]
[1]
  pEC50: 6.00 to 7.00
[2]
  pIC50: 6.00 to 7.00

## CCN(CC)C1Cc2cccc3ccn(c23)C1 (centres unmarked) [Compound 16, N,N-diethyl-5,6-dihydro-4H-pyrrolo[3,2,1-]quinolin-5-amine]
[1]
  pEC50: 6.00 to 7.00
[2]
  pIC50: 6.00 to 7.00

## NC1Cc2cc(F)cc3ccn(c23)C1 (centres unmarked) [Compound 17, 8-fluoro-5,6-dihydro-4H-pyrrolo[3,2,1-ij]quinolin-5-amine]
[1]
  pEC50: 6.00 to 7.00
[2]
  pIC50: 6.00 to 7.00

## NC1Cc2c(F)ccc3ccn(c23)C1 (centres unmarked) [Compound 19, 7-fluoro-5,6-dihydro-4H-pyrrolo[3,2,1-ij]quinolin-5-amine]
[1]
  pEC50: 6.00 to 7.00
[2]
  pIC50: 6.00 to 7.00

## NC1Cc2cc(Cl)cc3ccn(c23)C1 (centres unmarked) [Compound 21, 8-chloro-5,6-dihydro-4H-pyrrolo[3,2,1-ij]quinolin-5-amine]
[1]
  pEC50: 6.00 to 7.00
[2]
  pIC50: 6.00 to 7.00

## NC1Cc2c(Cl)ccc3ccn(c23)C1 (centres unmarked) [Compound 23, 7-chloro-5,6-dihydro-4H-pyrrolo[3,2,1-ij]quinolin-5-amine]
[1]
  pEC50: 6.00 to 7.00
[2]
  pIC50: 6.00 to 7.00

## COc1cc2c3c(ccn3CC(N)C2)c1 (centres unmarked) [Compound 25, 8-methoxy-5,6-dihydro-4H-pyrrolo[3,2,1-ij]quinolin-5-amine]
[1]
  pEC50: 5.00 to 6.00
[2]
  pIC50: 5.00 to 6.00

## NC1Cc2cccc3[nH]cc(c23)C1 (centres unmarked) [Compound 27, 1,3,4,5-tetrahydrobenzo[cd]indol-4-amine]
[1]
  pEC50: 6.00 to 7.00
[2]
  pIC50: 6.00 to 7.00
